As usually defined, the melting point is the temperature, or range, at which the solid turns liquid.

This passage reports melting point results from patent US20230357210A1, “NITROGEN-CONTAINING CONDENSED HETEROCYCLIC COMPOUND HAVING AN OXIME GROUP, AGRICULTURAL OR HORTICULTURAL HERBICIDE COMPRISING THE COMPOUND, AND METHOD FOR USING THE COMPOUND OR THE HERBICIDE” (NIHON NOHYAKU CO., LTD., priority 2020, published 2023).

The structures appear in SMILES notation.

Molecule `CCON=C(N)c1ccc(S(C)(=O)=O)c(-c2nc3cc(C(F)(F)F)ccc3n2C)n1` [1-205, N′-ethoxy-5-methylsulfonyl-6-[1-methyl-5-(trifluoromethyl)benzimidazol-2-yl]pyridine-2-carboxamidine] yielded a melting point of 149 to 150 °C. For `CCON=C(N)c1ccc(S(=O)(=O)NC)c(-c2nc3cc(C(F)(F)F)ccc3n2C)n1` [1-210, N′-ethoxy-5-methylsulfamoyl-6-[1-methyl-5-(trifluoromethyl)benzimidazol-2-yl)pyridine-2-carboxamidine], the melting point was 173 to 174 °C.

Regarding `CCON=C(NC)c1ccc(S(C)(=O)=O)c(-c2nc3cc(C(F)(F)F)ccc3n2C)n1` [1-216, N′-ethoxy-N-methyl-5-methylsulfonyl-6-[1-methyl-5-(trifluor omethyl)benzimidazol-2-yl]pyridine-2-carboxamidine], the melting point was 154 to 155 °C. For `CCON=C(c1ccc(S(C)(=O)=O)c(-c2nc3cc(C(F)(F)F)ccc3n2C)n1)N(C)C` [1-220, N′-ethoxy-N,N-dimethyl-5-methylsulfonyl-6-[1-methyl-5-(trifluoromethyl)benzimidazol-2-yl)pyridine-2-carboxamidine] the value was 150 to 151 °C; for `CCO/N=C/c1ccc(C(=O)O)c(-c2nc3cc(SC(F)(F)F)ccc3n2C)n1` [2-81, 6-[(E)-ethoxyiminomethyl]-2-[1-methyl-5-(trifluoromethylthio)benzimidazol-2-yl]pyridine-3-carboxylic acid], 195 to 196 °C; for `CCO/N=C/c1ccc(C(=O)N(C)C)c(-c2nc3cc(SC(F)(F)F)ccc3n2C)n1` [2-95, 6-[(E)-ethoxyiminomethyl]-N,N-dimethyl-2-[1-methyl-5-(trifluoromethylthio)benzimidazol-2-yl]pyridine-3-carboxamide], 118 to 119 °C.

Consider `CCO/N=C(\C)c1ccc(C(=O)OC)c(-c2nc3cc(SC(F)(F)F)ccc3n2C)n1` [2-105, 6-[(E)-N-ethoxy-C-methyl-carbonimidoyl]-2-[1-methyl-5-(trifluoromethylthio)benzimidazol-2-yl]pyridine-3-carboxylic acid methyl ester], for which the melting point was 121 to 122 °C. For `CCON=C(N)c1ccc(C(=O)OC)c(-c2nc3cc(C(F)(F)F)ccc3n2C)n1` [2-123, N′-ethoxy-5-methoxycarbonyl-6-[1-methyl-5-(trifluoromethyl)benzimidazol-2-yl)pyridine-2-carboxamidine] the value was 46 to 47 °C. The molecule `CCON=C(N)c1cc(C)c(Cl)c(-c2nc3cc(C(F)(F)F)ccc3n2C)n1` [3-65, 5-chloro-N′-ethoxy-4-methyl-6-[1-methyl-5-(trifluoromethyl)benzimidazol-2-yl]pyridine-2-carboxamidine] displayed a melting point of 144 to 145 °C. For `CCON=C(N)c1cc(C)c(S(C)(=O)=O)c(-c2nc3cc(C(F)(F)F)ccc3n2C)n1` [3-70, N′-ethoxy-4-methyl-5-methylsulfonyl-6-[1-methyl-5-(trifluor omethyl)benzimidazol-2-yl]pyridine-2-carboxamidine], the melting point lay in the range of 246 to 247 °C. For `CCO/N=C(\N)c1cnc(S(=O)(=O)NC)c(-c2nc3cc(C(F)(F)F)ccc3n2C)n1` [7-46, (Z)-N′-ethoxy-6-(1-methyl-5-(trifluoromethyl)-1H-benzo[d]imidazol-2-yl)-5-(N-methylsulfamoyl)pyrazine-2-carboximidamide] the value was 244 to 246 °C.

With `CCO/N=C(\N)c1ncc(S(=O)(=O)NC)c(-c2nc3ccccc3n2C)n1` [8-6, (Z)-N′-ethoxy-4-(1-methyl-1H-benzo[d]imidazol-2-yl)-5-(N-methylsulfamoyl)pyrimidine-2-carboximidamide], the melting point fell in the range of 222 to 223 °C.
